According to patent US12485121B2, “Antiviral agents for the treatment and prevention of HIV infection” (Pharmasyntez, Joint Stock Company, priority 2020, dated 2025):
pIC50: −log10 of the molar value.

Test system: HIV-1 subtype A strain 12RU 69831
Assay: Inhibition of HIV-1 reproduction / protection of infected MT-4 cells (living cell concentration, p24 production)
Assay type: cell-based
Settings: Human immunodeficiency virus 1, MT4, MT-4 cells infected with HIV-1 at a constant virus dose of 300 CCID50; read-out: Activity against HIV-1 12RU 69831 strain (subtype A)
Method: Evaluation of HIV reproduction inhibition/protection of human cells by anti-HIV products of the present invention was conducted by measuring change in living cells concentration in experimental wells with MT-4 cells infected with HIV-1, as well as by the production of viral protein p24 with adding different concentrations of compounds according to the present invention. Antiviral activity of products against HIV-1 subtype A strain 12RU 69831 was determined, when the cell culture was infected with a constant dose of virus, corresponding to 300 CCID50.

Compared with Cc1cc(C#N)cc(C)c1Oc1nc(Nc2ccc(C#N)cc2)nc2c1CCN(Cc1ccccn1)CC2 [BB0274014, 4-((2-((4-Cyanophenyl)amino)-7-(pyridine-2-ylmethyl)-6,7,8,9-tetrahydro-5H-pyrimido[4,5-d]azepine-4-yl)oxy)-3,5-dimethylbenzonitrile], Cc1cc(C#N)cc(C)c1Oc1nc(Nc2ccc(C#N)cc2)nc2c1CCN(C(=O)c1ccccn1)CC2 [BB0274010, 4-((2-((4-Cyanophenyl)amino)-7-picolynoyl-6,7,8,9-tetrahydro-5H-pyrimido[4,5-d]azepine-4-yl)oxy)-3,5-dimethylbenzonitrile] is 1.99 log units higher in pIC50: 5.22 for the first, 7.21 for the second.

First: CC(=O)N1CCc2nc(Nc3ccc(C#N)cc3)nc(Oc3c(C)cc(C#N)cc3C)c2CC1 [BB0274145, 4-((7-Acetyl-2-((4-cyanophenyl)amino)-6,7,8,9-tetrahydro-5H-pyrimido[4,5-d]azepine-4-yl)oxy)-3,5-dimethylbenzonitrile]
Second: Cc1cc(C#N)cc(C)c1Oc1nc(Nc2ccc(C#N)cc2)nc2c1CCN(C(=O)OC(C)(C)C)CC2 [BB0273972, Tert-butyl 4-(4-cyano-2,6-dimethylphenoxy)-2-((4-cyanophenyl)amino)-8,9-dihydro-5H-pyrimido[4,5-d]azepine-7(6H)-carboxylate]
The pIC50 of the first is 1.84 log units higher: 5.77 for the first, 3.93 for the second.

First: CCOC(=O)N1CCc2nc(Nc3ccc(C#N)cc3)nc(Oc3c(C)cc(C#N)cc3C)c2C1 [BB0273965, Ethyl 4-(4-cyano-2,6-dimethylphenoxy)-2-((4-cyanophenyl)amino)-7,8-dihydropyrido[4,3-d]pyrimidine-6(5H)-carboxylate]
Second: Cc1cc(C#N)cc(C)c1Oc1nc(Nc2ccc(C#N)cc2)nc2c1CCN(CCC(=O)O)CC2 [BB0274143, 3-(4-(4-Cyano-2,6-dimethylphenoxy)-2-((4-cyanophenyl)amino)-8,9-dihydro-5H-pyrimido[4,5-d]azepine-7(6H)-yl)propanoic acid]
The pIC50 of the first is 0.39 log units lower: 5.76 for the first, 6.15 for the second.

First: Cc1cc(C=O)cc(C)c1Oc1nc(Nc2ccc(C#N)cc2)nc2c1CCN(C(=O)OC(C)(C)C)CC2 [BB0273943, Tert-butyl 2-((4-cyanophenyl)amino)-4-(4-formyl-2,6-dimethylphenyoxy)-8,9-dihydro-5H-pyrimido[4,5-d]azepine-7(6H)-carboxylate]
Second: Cc1cc(C#N)cc(C)c1Oc1nc(Nc2ccc(C#N)cc2)nc2c1CCN(C(=O)[C@@H]1CCCN1C(=O)OC(C)(C)C)CC2 [BB0274065, (S)-Tert-butyl 2-(4-(4-cyano-2,6-dimethylphenoxy)-2-((cyanophenyl)amino)-6,7,8,9-tetrahydro-5H-pyrimido[4,5-d]azepine-7-carbonyl)pyrrolidine-1-carboxylate]
The pIC50 of the first is 0.93 log units lower: 3.46 for the first, 4.39 for the second.

Going from Cc1cc(C#N)cc(C)c1Oc1nc(Nc2ccc(C#N)cc2)nc2c1CCN(C1CCNCC1)CC2 [BB0274028, 4-((2-((4-Cyanophenyl)amino)-7-(piperidine-4-yl)-6,7,8,9-tetrahydro-5H-pyrimido[4,5-d]azepine-4-yl)oxy)-3,5-dimethylbenzonitrile] to Cc1cc(C#N)cc(C)c1Oc1nc(Nc2ccc(C#N)cc2)nc2c1CCN(C1CCN(C(=O)OC(C)(C)C)CC1)CC2 [BB0274027, Tert-butyl 4-(4-(4-cyano-2,6-dimethylphenoxy)-2-((4-cyanophenyl)amino)-8,9-dihydro-5H-pyrimido[4,5-d]azepine-7(6H)-yl)piperidine-1-carboxylate], the pIC50 falls from 4.79 to 4.43 (0.36 log units).

First: Cc1cc(C#N)cc(C)c1Oc1nc(Nc2ccc(C#N)cc2)nc2c1CN(Cc1ccncc1)CC2 [BB0274137, 4-((2-((4-Cyanophenyl)amino)-6-(pyridine-4-ylmethyl)-5,6,7,8-tetrahydropyrido[4,3-d]pyrimidine-4-yl)oxy)-3,5-dimethylbenzonitrile]
Second: Cc1cc(C#N)cc(C)c1Oc1nc(Nc2ccc(C#N)cc2)nc2c1CN(C(=O)[C@@H](N)Cc1ccc(O)cc1)CC2 [BB0274125, (S)-4-((6-(2-Amino-3-(4-hydroxyphenyl)propanoyl)-2-((4-cyanophenyl)amino)-5,6,7,8-tetrahydropyrido[4,3-d]pyrimidine-4-yl)oxy)-3,5-dimethylbenzonitrile]
The pIC50 of the first is 4.01 log units higher: 8.10 for the first, 4.09 for the second.
